Source: patent US8541342B2, “Fungicidal substance combinations” (Bayer Cropsciene AG, priority 2007, dated 2013)

How the values were obtained:
Gibberella zeae = assay: microbe, parasite or virus in culture; format: cell-based; conditions: Fusarium graminearum, 120 h, read-out: % efficacy
Pyrenophora teres = Pyrenophora teres test (barley)/protective; conditions: protective spray on barley, evaluation 10 days after inoculation

| Compound | Efficacy at 0.3 ppm (Gibberella zeae) [%] | Efficacy in % found (Pyrenophora teres; 62.5 g/ha) [%] | Efficacy in % found (Pyrenophora teres; 125 g/ha) [%] |
| --- | --- | --- | --- |
| CO/N=C(/C(=O)OC)c1ccccc1CO/N=C(\C)c1cccc(C(F)(F)F)c1 [Trifloxystrobin, trifloxystrobin] | 40 | 78 |  |
| COCC(=O)N(c1c(C)cccc1C)C(C)C(=O)OC (stereo not shown) [(III), Metalaxyl] |  |  | 22 |
| Cc1nn(C)c(F)c1C(=O)Nc1ccccc1C(C)CC(C)C (stereo not shown) [(I), N-[2-(1,3-Dimethylbutyl)phenyl]-5-fluoro-1,3-dimethyl-1H-pyrazole-4-carboxamide] |  | 67 |  |
